In patent US6300499A, “α1-adrenergic receptor antagonists” (Societe de Conseils de Recherches et d'Applications …, priority 1998, dated 2001):

Target: α1-adrenergic receptor
Test: Test of the bond to the α1-adrenergic receptor (inhibition of [3H]prazosin bond to rat cerebral cortex)
Type: binding, rat (male Sprague Dawley)
Conditions: [3H]prazosin 0.2 nM, rat cerebral cortex membranes, 30 min, 25° C., pH 7.7
Description: The cerebral cortices of male Sprague Dawley rats are homogenized at 4° C. in Tris-HCl 50 mM pH=7.7 and centrifuged at 50,000 g for 30 minutes at 4° C. The pellets are again suspended in the same buffer and centrifuged again at 50,000 g for 30 minutes at 4° C.
The filters are rinsed three times with the same buffer at 0-4° C. and their radioactivity is tested by liquid scintillation spectrometry.
The specific bonds are obtained by subtracting the non-specific bonds (determined in the presence of 10 μM of phentolamine (Sigma Chemical Co. St. Louis Mo.)) from the total bonds. The data relative to the bonds is analyzed by computer assisted iterative non-linear regression analysis, using the Ligand program (Munson, P. J., Rodbard, D. Anal. Biochem. 107:220 (1980)).

SMILES | Ki [nM]
COc1ccccc1N1CCN(CCCNC(=O)C(c2ccccc2)C2CCCCC2)CC1 (racemic) [Compound 18, (±)-α-cyclohexyl-N-[3-{4-(2-methoxyphenyl)-1-piperazinyl}-propyl]-benzeneacetamide] | 55
COc1ccccc1N1CCN(CCCNC(=O)C(O)c2ccccc2)CC1 (racemic) [Compound 19, (±)-α-hydroxy-N-[3-{4-(2-methoxyphenyl)-1-piperazinyl}-propyl]-benzeneacetamide] | 60
CCCCC(O)(C(=O)NCCCN1CCN(c2cc(C)ccc2C)CC1)c1ccccc1 (racemic) [Compound 28, (±)-N-[3-{4-(2,5-dimethylphenyl)-1-piperazinyl}-propyl]-2-hydroxy-2-phenyl-hexanamide] | 36
Cc1ccc(C)c(N2CCN(CCCNC(=O)C(C)(O)c3ccccc3Cl)CC2)c1 (racemic) [Compound 29, (±)-2-chloro-N-[3-{4-(2,5-dimethylphenyl)-1-piperazinyl}-propyl]-α-hydroxy-α-methyl-benzeneacetamide] | 67
Cc1ccc(C)c(N2CCN(CCCNC(=O)C(C)(O)c3ccc(Cl)cc3)CC2)c1 (racemic) [Compound 30, (±)-4-chloro-N-[3-{4-(2,5-dimethylphenyl)-1-piperazinyl}-propyl]-α-hydroxy-α-methyl-benzeneacetamide] | 44
Cc1ccc(C)c(N2CCN(CCCNC(=O)C(C)(O)c3cccc(Cl)c3)CC2)c1 (racemic) [Compound 31, (±)-3-chloro-N-[3-{4-(2,5-dimethylphenyl)-1-piperazinyl}-propyl]-α-hydroxy-α-methyl-benzeneacetamide] | 43
Cc1ccc(C)c(N2CCN(CCCNC(=O)C(N)c3ccccc3)CC2)c1 (racemic) [Compound 32, (±)-a-amino-N-[3-{4-(2,5-dimethylphenyl)-1-piperazinyl}-propyl]-benzeneacetamide] | 51
Cc1ccc(C)c(N2CCN(CCCNC(=O)C(NS(C)(=O)=O)c3ccccc3)CC2)c1 (racemic) [Compound 33, (±)-N-[3-{4-(2,5-dimethylphenyl)-1-piperazinyl}-propyl]-α-(methylsulphonylamino)-benzeneacetamide] | 40
COc1ccc(CC(C)(O)C(=O)NCCCN2CCN(c3cc(C)ccc3C)CC2)cc1 (racemic) [Compound 34, (±)-N-[3-{4-(2,5-dimethylphenyl)-1-piperazinyl}-propyl]-2-hydroxy-2-methyl-4-methoxy-benzenepropionamide] | 45
CCC(O)c1ccccc1N1CCN(CCCNC(=O)C(c2ccccc2)c2ccccc2)CC1 (racemic) [Compound 36, (±)-N-[3-{4-(2-(1-hydroxypropyl)-phenyl)-1-piperazinyl}-propyl]-α-phenyl-benzeneacetamide] | 170
COc1ccc(C(C)(O)C(=O)NCCCN2CCN(c3cc(C)ccc3C)CC2)cc1 (racemic) [Compound 40, (±)-N-[3-{4-(2,5-dimethylphenyl)-1-piperazinyl}-propyl]-α-hydroxy-α-methyl-4-methoxy-benzeneacetamide] | 38
Cc1ccc(C(C)(O)C(=O)NCCCN2CCN(c3cc(C)ccc3C)CC2)cc1 (racemic) [Compound 41, (±)-N-[3-{4-(2,5-dimethylphenyl)-1-piperazinyl}-propyl]-α-hydroxy-α-methyl-4-methyl-benzeneacetamide] | 27
Cc1ccc(C)c(N2CCN(CCCNC(=O)C(C)(O)c3ccc4ccccc4c3)CC2)c1 (racemic) [Compound 43, (±)-N-[3-{4-(2,5-dimethylphenyl)-1-piperazinyl}-propyl]-α-hydroxy-α-methyl-2-naphthaleneacetamide] | 29
Cc1ccc(C)c(N2CCN(CCCNC(=O)C(C)(O)c3cccc(-c4ccccc4)c3)CC2)c1 (racemic) [Compound 44, (±)-N-[3-{4-(2,5-dimethylphenyl)-1-piperazinyl}-propyl]-α-hydroxy-α-methyl-1,1'-biphenyl-3-acetamide] | 73
Cc1ccc(C)c(N2CCN(CCCNC(=O)C(NC(=O)Cc3ccccc3)c3ccccc3)CC2)c1 (racemic) [Compound 49, (±)-N-[3-{4-(2,5-dimethylphenyl)-1-piperazinyl}-propyl]-α-benzylcarbonylamino-benzeneacetamide] | 50
COC(C)(C(=O)NCCCN1CCN(c2cc(C)ccc2C)CC1)c1ccccc1 (racemic) [Compound 51, (±)-N-[3-{4-(2,5-dimethylphenyl)-1-piperazinyl}-propyl]-α-methoxy-α-methyl-benzeneacetamide] | 110
Cc1ccc(C)c(N2CCN(CCCNC(=O)C(C)(OCc3ccccc3)c3ccccc3)CC2)c1 (racemic) [Compound 52, (±)-N-[3-{4-(2,5-dimethylphenyl)-1-piperazinyl}-propyl]-α-benzyloxy-α-methyl-benzeneacetamide] | 51
Cc1ccc(C)c(N2CCN(CCCNC(=O)C(C)(C)O)CC2)c1 (racemic) [Compound 54, (±)-N-[3-{4-(2,5-dimethylphenyl)-1-piperazinyl}-propyl]-2-hydroxy-2-methyl-propionamide] | 280
O=C(NCCCN1CCN(c2ccccc2C(O)C2CC2)CC1)C(c1ccccc1)c1ccccc1 (racemic) [Compound 55, (±)-N-[3-{4-(2-(cyclopropylhydroxymethyl)-phenyl)-1-piperazinyl}-propyl]-α-phenyl-benzeneacetamide] | 300
CCCc1ccccc1N1CCN(CCCNC(=O)C(O)(c2ccccc2)c2ccccc2)CC1 (racemic) [Compound 56, (±)-N-[3-{4-(2-(propyl)-phenyl)-1-piperazinyl}-propyl]-α-hydroxy-α-phenyl-benzeneacetamide] | 25
Cc1cccc(N2CCN(CCCNC(=O)C(O)(c3ccccc3)c3ccccc3)CC2)c1 [Compound 1, α-hydroxy-N-[3-{4-(3-methylphenyl)-1-piperazinyl}-propyl]-α-phenylbenzeneacetamide] | 51
Cc1ccc(N2CCN(CCCNC(=O)C(O)(c3ccccc3)c3ccccc3)CC2)cc1 [Compound 3, α-hydroxy-N-[3-{4-(4-methylphenyl)-1-piperazinyl}-propyl]-α-phenyl-benzeneacetamide] | 60
Cc1cccc(N2CCN(CCCNC(=O)C(O)(c3ccccc3)c3ccccc3)CC2)c1C [Compound 4, N-[3-{4-(2,3-dimethylphenyl)-1-piperazinyl}-propyl]-α-hydroxy-α-phenyl-benzeneacetamide] | 66
Cc1ccc(N2CCN(CCCNC(=O)C(O)(c3ccccc3)c3ccccc3)CC2)c(C)c1 [Compound 5, N-[3-{4-(2,4-dimethylphenyl)-1-piperazinyl}-propyl]-α-hydroxy-α-phenyl-benzeneacetamide] | 60
Cc1cccc(C)c1N1CCN(CCCNC(=O)C(O)(c2ccccc2)c2ccccc2)CC1 [Compound 6, N-[3-{4-(2,6-dimethylphenyl)-1-piperazinyl}-propyl]-a-hydroxy-a-phenyl-benzeneacetamide] | 480
Cc1ccc(C)c(N2CCN(CCCNC(=O)C(c3ccc(Cl)cc3)c3ccc(Cl)cc3)CC2)c1 [Compound 21, 4-chloro-a-(4-chlorophenyl)-N-[3-{4-(2,5-dimethylphenyl)-1-piperazinyl}-propyl]-benzeneacetamide] | 64
Cc1ccc(C)c(N2CCN(CCCNC(=O)C(C)(c3ccccc3)c3ccccc3)CC2)c1 [Compound 23, N-[3-{4-(2,5-dimethylphenyl)-1-piperazinyl}-propyl]-α-methyl-α-phenyl-benzeneacetamide] | 98
CCSC(C(=O)NCCCN1CCN(c2cc(C)ccc2C)CC1)(c1ccccc1)c1ccccc1 [Compound 24, N-[3-{4-(2,5dimethylphenyl)-1-piperazinyl}-propyl]-α-ethylthio-α-phenyl-benzeneacetamide] | 69
CCC(CC)(C(=O)NCCCN1CCN(c2cc(C)ccc2C)CC1)c1ccccc1 [Compound 26, N-[3-{4-(2,5dimethylphenyl)-1-piperazinyl}-propyl]-2-ethyl-2-phenyl-butyramide] | 74
Cc1ccc(C)c(N2CCN(CCCN(C)C(=O)C(c3ccccc3)c3ccccc3)CC2)c1 [Compound 35, N-[3-{4-(2,5-dimethylphenyl)-1piperazinyl}-propyl]-N-methyl-α-phenyl-benzeneacetamide] | 90
